Experimental data from ChEMBL document CHEMBL3272321, “Preliminary biological studies of certain amino acid analogues” (J Med Chem, 1976).
Activity calls are given as the source filed them. The calls are words filed in the database; no cut-off is given here.

Experiments:
[1] = Retardation factor, Rf of the compound by paper chromatographic analysis; format: physicochemical
Mus musculus [2] = species: Mus musculus; test: Toxicity in albino mouse assessed as tissue damage; format: organism-based; settings: in vivo
Escherichia coli [3] = test: Bacteriostatic activity against Escherichia coli 9723 at 5 to 15 X 10^-5 mole/10 ml after 5 to 25 hrs by spectrophotometric analysis in presence of L-phenylalanine; format: functional, organism-based
[4] = Drug excretion in albino mouse urine at 2 mg, sc after 24 hrs; format: ADME, organism-based; settings: read-out: Drug excretion
[5] = Drug excretion in albino mouse feces at 2 mg, sc after 24 hrs; format: ADME, organism-based; settings: faeces, read-out: Drug excretion
Escherichia coli [6] = test: Bacteriostatic activity against Escherichia coli 9723 after 19 hrs by spectrophotometric analysis; format: functional
Escherichia coli [7] = test: Bacteriostatic activity against Escherichia coli 9723 after 8 hrs by spectrophotometric analysis; format: functional
Escherichia coli [8] = test: Bacteriostatic activity against Escherichia coli 9723 at 5 to 15 X 10^-5 mole/10 ml after 5 to 25 hrs by spectrophotometric analysis; format: functional, organism-based
Mus musculus [9] = test: Toxicity in albino mouse at 400 mg/kg, ip qd for 7 days measured after 7 days; format: organism-based; parameters: dose 400 mg/kg, route intraperitoneal; settings: in vivo, 168 h
Escherichia coli [10] = test: Bacteriostatic activity against Escherichia coli 9723 at 5 to 15 X 10^-5 mole/10 ml after 5 to 25 hrs by spectrophotometric analysis in presence of D-methionine; format: functional, organism-based
Escherichia coli [11] = test: Bacteriostatic activity against Escherichia coli 9723 at 5 to 15 X 10^-5 mole/10 ml after 5 to 25 hrs by spectrophotometric analysis in presence of L-methionine; format: functional, organism-based

Rf [1]	dose excreted at 24 h [4]	dose excreted at 24 h [5]	GI90 (Escherichia coli [6])	GI90 (Escherichia coli [7])	SMILES	Activity (Mus musculus [2])	Activity (Escherichia coli [3])	Activity (Escherichia coli [8])	Activity (Mus musculus [9])	Activity (Escherichia coli [10])	Activity (Escherichia coli [11])
0.77	97.9%	2.1%	0.005 M	0.0025 M	CC[C@](N)(Cc1ccccc1)C(=O)O	Non-toxic	inactive	Active	Non-toxic	–	–
0.64	–	–	–	–	NC(C(=O)O)(C1CC1)C1CC1	Non-toxic	–	–	Non-toxic	–	–
0.71	97.6%	2.2%	0.01 M	0.0013 M	C=CCCC(C)(N)C(=O)O (stereo not given)	Non-toxic	–	Active	Non-toxic	inactive	inactive
0.56	–	–	–	–	CC(N)(C(=O)O)C1CC1 (stereo not given)	Non-toxic	–	–	Non-toxic	–	–
